In US20240124441A1, “POLYMORPH OF LATREPIRDINE DIHYDROCHLORIDE” (BIGESPAS LTD., priority 2021, published 2024):
Read-outs that look alike come from different tables or passages of the source. Each block holds one molecule with its values, some of them ahead of it.

Experiments:
[1] = Bioavailability study: Latrepirdine concentration in brain tissue after oro-gastric gavage; details: for Concentration of Latrepirdine in brain tissue: 10 mg/kg oro-gastric gavage, suspension in corn oil, rat, 10 mg/kg
Description: (§1) Those crystalline polymorphs and DMB-I were used in an animal study to evaluate absorption of crystalline forms of Latrepirdine from gastrointestinal tract into blood serum and brain tissues of the animals. Male Wistar rats were used in animal study. Rats were randomly divided into 5 groups, each group containing 28 animals, for administration of respective polymorphic forms of Latrepirdine. Respective polymorphic form of Latrepirdine was administered by oro-gastric gavage as a suspension in corn oil at a dose of 10 mg/kg. Animals were euthanized at 15, 30, 60, and 120 min after administration of Latrepirdine (7 animals at each timepoint) followed by collection of blood serum and brain tissue samples that were analyzed for Latrepirdine content by LCMS. Analyses were performed using Prominence LCMS-850 equipped with Kinetex C18 Phenomenex column. Statistical bi-factorial ANOVA analysis of analytical data was performed using Statistica-7.1. software.

[2] = Bioavailability study: Latrepirdine concentration in blood serum after oro-gastric gavage
Description: as §1

[3] = rat, in vivo, po
Description: as §1

[4] = rat, in vivo, po; remark: listed apart in the source
Description: as §1

Structure (SMILES): Cc1ccc2c(c1)c1c(n2CCc2ccc(C)nc2)CCN(C)C1 [Polymorph A, 2,8-dimethyl-5-[2-(6-methylpyridin-3-yl)ethyl]-3,4-dihydro-1H-pyrido[4,3-b]indole]
Concentration of Latrepirdine in brain tissue ([1]; 15 min after administration, listed as A): 22.4 ng/mL
Concentration of Latrepirdine in brain tissue ([1]; 30 min after administration, listed as A): 5.6 ng/mL
Concentration of Latrepirdine in brain tissue ([1]; 60 min after administration, listed as A): 76.8 ng/mL
Concentration of Latrepirdine in brain tissue ([1]; 120 min after administration, listed as A): 24.4 ng/mL
Concentration of Latrepirdine in blood serum ([2]; 15 min after administration, 10 mg/kg oro-gastric gavage, suspension in corn oil, rat, listed as A, 10 mg/kg): 2.0 ng/mL
Concentration of Latrepirdine in blood serum ([2]; 60 min after administration, 10 mg/kg oro-gastric gavage, suspension in corn oil, rat, listed as A, 10 mg/kg): 3.9 ng/mL
Concentration of Latrepirdine in blood serum ([2]; 120 min after administration, 10 mg/kg oro-gastric gavage, suspension in corn oil, rat, listed as A, 10 mg/kg): 2.0 ng/mL
concentration at 30 min ([2]; male, Wistar, rat, serum, oral, 10 mg/kg, Concentration of Latrepirdine in blood serum, 30 min after administration, 10 mg/kg oro-gastric gavage, suspension in corn oil, rat): 7 ng/mL

Structure (SMILES): Cc1ccc2c(c1)c1c(n2CCc2ccc(C)nc2)CCN(C)C1 [Polymorph B, 2,8-dimethyl-5-[2-(6-methylpyridin-3-yl)ethyl]-3,4-dihydro-1H-pyrido[4,3-b]indole]
Concentration of Latrepirdine in brain tissue ([1]; 15 min after administration, listed as B): 23.5 ng/mL
Concentration of Latrepirdine in brain tissue ([1]; 30 min after administration, listed as B): 34.2 ng/mL
Concentration of Latrepirdine in brain tissue ([1]; 60 min after administration, listed as B): 54.4 ng/mL
Concentration of Latrepirdine in brain tissue ([1]; 120 min after administration, listed as B): 29.7 ng/mL
Concentration of Latrepirdine in blood serum ([2]; 15 min after administration, 10 mg/kg oro-gastric gavage, suspension in corn oil, rat, listed as B, 10 mg/kg): 5.9 ng/mL
Concentration of Latrepirdine in blood serum ([2]; 30 min after administration, 10 mg/kg oro-gastric gavage, suspension in corn oil, rat, listed as B, 10 mg/kg): 5.6 ng/mL
Concentration of Latrepirdine in blood serum ([2]; 60 min after administration, 10 mg/kg oro-gastric gavage, suspension in corn oil, rat, listed as B, 10 mg/kg): 7.4 ng/mL
Concentration of Latrepirdine in blood serum ([2]; 120 min after administration, 10 mg/kg oro-gastric gavage, suspension in corn oil, rat, listed as B, 10 mg/kg): 1.0 ng/mL

Structure (SMILES): Cc1ccc2c(c1)c1c(n2CCc2ccc(C)nc2)CCN(C)C1 [Polymorph C, 2,8-dimethyl-5-[2-(6-methylpyridin-3-yl)ethyl]-3,4-dihydro-1H-pyrido[4,3-b]indole]
Concentration of Latrepirdine in brain tissue ([1]; 15 min after administration, listed as C): 25.1 ng/mL
Concentration of Latrepirdine in brain tissue ([1]; 30 min after administration, listed as C): 15.0 ng/mL
Concentration of Latrepirdine in brain tissue ([1]; 60 min after administration, listed as C): 32.1 ng/mL
Concentration of Latrepirdine in brain tissue ([1]; 120 min after administration, listed as C): 39.1 ng/mL
Concentration of Latrepirdine in blood serum ([2]; 15 min after administration, 10 mg/kg oro-gastric gavage, suspension in corn oil, rat, listed as C, 10 mg/kg): 7.4 ng/mL
Concentration of Latrepirdine in blood serum ([2]; 30 min after administration, 10 mg/kg oro-gastric gavage, suspension in corn oil, rat, listed as C, 10 mg/kg): 6.8 ng/mL
Concentration of Latrepirdine in blood serum ([2]; 60 min after administration, 10 mg/kg oro-gastric gavage, suspension in corn oil, rat, listed as C, 10 mg/kg): 6.7 ng/mL
Concentration of Latrepirdine in blood serum ([2]; 120 min after administration, 10 mg/kg oro-gastric gavage, suspension in corn oil, rat, listed as C, 10 mg/kg): 7.0 ng/mL

Now from value to molecule:

Concentration of Latrepirdine in brain tissue ([1]; 15 min after administration, listed as DMB-I): 45.1 ng/mL
Concentration of Latrepirdine in brain tissue ([1]; 30 min after administration, listed as DMB-I): 26.8 ng/mL
Concentration of Latrepirdine in brain tissue ([1]; 60 min after administration, listed as DMB-I): 106.0 ng/mL
Concentration of Latrepirdine in brain tissue ([1]; 120 min after administration, listed as DMB-I): 49.8 ng/mL
Cmax exceeds the Cmax of other polymorphic forms by ([1]; brain tissue, intragastric administration, versus the other four polymorphic forms): 32-260%
Median values of Cmax compared among the five tested polymorphic forms [3]: highest value
Median values of Cmax compared among the five tested polymorphic forms [4]: highest value
Concentration of Latrepirdine in blood serum ([2]; 15 min after administration, 10 mg/kg oro-gastric gavage, suspension in corn oil, rat, listed as DMB-I, 10 mg/kg): 12.8 ng/mL
Concentration of Latrepirdine in blood serum ([2]; 30 min after administration, 10 mg/kg oro-gastric gavage, suspension in corn oil, rat, listed as DMB-I, 10 mg/kg): 10.0 ng/mL
Concentration of Latrepirdine in blood serum ([2]; 60 min after administration, 10 mg/kg oro-gastric gavage, suspension in corn oil, rat, listed as DMB-I, 10 mg/kg): 9.7 ng/mL
Concentration of Latrepirdine in blood serum ([2]; 120 min after administration, 10 mg/kg oro-gastric gavage, suspension in corn oil, rat, listed as DMB-I, 10 mg/kg): 10.4 ng/mL
Cmax exceeds the Cmax of other polymorphic forms by ([2]; blood plasma, intragastric administration, versus the other four polymorphic forms): 12-240%
Tmax ([2]; male, Wistar, rat, plasma, po, 10 mg/kg): 15 min
Structure (SMILES): Cc1ccc2c(c1)c1c(n2CCc2ccc(C)nc2)CCN(C)C1 [Polymorph DMB-I, 2,8-dimethyl-5-[2-(6-methylpyridin-3-yl)ethyl]-3,4-dihydro-1H-pyrido[4,3-b]indole]

Concentration of Latrepirdine in brain tissue ([1]; 15 min after administration, listed as F): 20.2 ng/mL
Concentration of Latrepirdine in brain tissue ([1]; 30 min after administration, listed as F): 32.2 ng/mL
Concentration of Latrepirdine in brain tissue ([1]; 60 min after administration, listed as F): 68.5 ng/mL
Concentration of Latrepirdine in brain tissue ([1]; 120 min after administration, listed as F): 45.1 ng/mL
Concentration of Latrepirdine in blood serum ([2]; 15 min after administration, 10 mg/kg oro-gastric gavage, suspension in corn oil, rat, listed as F, 10 mg/kg): 4.8 ng/mL
Concentration of Latrepirdine in blood serum ([2]; 30 min after administration, 10 mg/kg oro-gastric gavage, suspension in corn oil, rat, listed as F, 10 mg/kg): 6.3 ng/mL
Concentration of Latrepirdine in blood serum ([2]; 60 min after administration, 10 mg/kg oro-gastric gavage, suspension in corn oil, rat, listed as F, 10 mg/kg): 9.4 ng/mL
Concentration of Latrepirdine in blood serum ([2]; 120 min after administration, 10 mg/kg oro-gastric gavage, suspension in corn oil, rat, listed as F, 10 mg/kg): 3.6 ng/mL
Structure (SMILES): Cc1ccc2c(c1)c1c(n2CCc2ccc(C)nc2)CCN(C)C1 [Polymorph F, 2,8-dimethyl-5-[2-(6-methylpyridin-3-yl)ethyl]-3,4-dihydro-1H-pyrido[4,3-b]indole]
